Data taken from patent publication US20200078395A1, “AVERTING COMPLICATIONS OF PUMP INHIBITOR THERAPY BY EFFERVESCENT CALCIUM MAGNESIUM CITRATE” (THE BOARD OF REGENTS OF THE UNIVERSITY OF TEXAS SYSTEM, priority 2018, published 2020).

What was measured:
[1] = Serum magnesium in CKD Stage 3 and Stage 5D after EffCaMgCit or calcium acetate; type: in vivo, human
[2] = tested on: serum CTX; test: Multi-dosing crossover trial on esomeprazole: post-load serum CTX (bone resorption marker); type: in vivo, human; parameters: dose or concentration left out as unconfirmed; conditions: of 22 subjects
Experimental: (§1) The inventors conducted a multi-dosing trial, in which the effect of EffCaMgCit was compared with placebo in a crossover trial in 22 healthy subjects taking PPI at twice the usual dose (esomeprazole 40 mg/day) for 28 days, representing the recommended treatment format for erosive esophagitis-gastritis. During the EffCaMgCit phase, subjects took EffCaMgCit containing 19 meq calcium and 10 meq magnesium twice per day for 28 days. During the Placebo Phase, the subjects took placebo for 28 days. During both phases, the subjects took esomeprazole 40 mg per day. Blood samples were obtained 4 hours after EffCaMgCit dose (in multi-dosing trials with esomeprazole), rather than in the fasting state. Tamsen: no study with PPI in CKD. Peak absorption of calcium and magnesium occurs 2-4 hours after oral load. Thus, pharmacokinetic and pharmacodynamic effects of EffCaMgCit can best be captured in post-load samples.
(§2) A venous blood sample was obtained at 4 hours after the morning dose of EffCaMgCit or placebo, for the analysis of Ca, PTH, CTX and Mg after 2 weeks and 4 weeks of treatment. […] In the Placebo group (while on esomeprazole), a low or marginally low serum calcium (<9 mg/dL) was encountered in 23% of subjects at 2 weeks and in 18% of subjects at 4 weeks. […] Thus, not only did EffCaMgCit raise serum calcium, but it also corrected low or marginally low serum calcium. […]

[3] = tested on: serum PTH; test: Multi-dosing crossover trial on esomeprazole: post-load serum PTH; type: in vivo, human; conditions: of 22 subjects, baseline 8
Experimental: as §1, §2

[4] = Multi-dosing crossover trial on esomeprazole: post-load serum magnesium; type: in vivo, human; conditions: for number of subjects with hypomagnesemia or marginal hypomagnesemia (<2 mg/dL): of 22 subjects, baseline 2; for subjects with hypomagnesemia or marginal hypomagnesemia (<2 mg/dL): baseline 9%
Experimental: as §1
Serum magnesium was determined at 2 weeks and 4 weeks at 4 hours after the morning dose. […] At baseline (before starting esomeprazole), 9% of subjects had hypomagnesemia or marginal hypomagnesemia (<2 mg/dL). During treatment with placebo with esomeprazole, hypomagnesemia or marginal hypomagnesemia was found in a higher percentage of subjects (14% at 2 weeks, and 23% at 4 weeks). During treatment with EffCaMgCit with esomeprazole, no subjects had hypomagnesemia or marginal hypomagnesemia. FIGS. 7 and 8.

[5] = Multi-dosing crossover trial on esomeprazole: 24-h urinary citrate and ammonium (acid load); type: in vivo, human; conditions: after 2-4 weeks of treatment
Experimental: as §1
24-h urinary citrate and ammonium, urinary markers of acid-base balance, were determined at baseline and after 2-4 weeks of treatment with esomeprazole (plus placebo) and after treatment with esomeprazole (plus EffCaMgCit). […] FIGS. 10 and 11.

[6] = tested on: serum FGF23; test: Multi-dosing crossover trial on esomeprazole: post-load serum FGF23; type: in vivo, human; conditions: 4 hours after morning dose, baseline to 4 weeks
Experimental: as §1

[7] = Multi-dosing crossover trial on esomeprazole: fractional excretion of magnesium (FEMg); type: in vivo, human; conditions: from baseline over 2-4 weeks
Experimental: as §1

[8] = Multi-dosing crossover trial on esomeprazole: post-load serum calcium; type: in vivo, human; conditions: for number of subjects with hypocalcemia or marginal hypocalcemia (serum calcium <9 mg/dL): of 22 subjects; for subjects with low or marginally low serum calcium (<9 mg/dL): baseline 18%
Experimental: as §1
A venous blood sample was obtained at 4 hours after the morning dose of EffCaMgCit or placebo, for the analysis of Ca, PTH, CTX and Mg after 2 weeks and 4 weeks of treatment. […] In the Placebo group (while on esomeprazole), a low or marginally low serum calcium (<9 mg/dL) was encountered in 23% of subjects at 2 weeks and in 18% of subjects at 4 weeks. […] Thus, not only did EffCaMgCit raise serum calcium, but it also corrected low or marginally low serum calcium. At two weeks of placebo (esomeprazole alone), a higher percentage of subjects had low or marginally low serum calcium than at baseline before esomeprazole (23% vs. 18%). Thus, a low or marginally low serum calcium developed during two weeks of esomeprazole therapy in an additional patient. This subject had normal serum calcium on EffCaMgCit (plus esomeprazole). FIGS. 1 and 2.

[9] = omeprazole use versus non-omeprazole use, FDA Adverse Event Reporting System 2012 (Tamura, 2012); cited from earlier work

## CC(=O)[O-].CC(=O)[O-].[Ca+2] [calcium acetate]
[1]; CKD Stage 3, data not shown
  serum magnesium after treatment: did not change
[1]; CKD Stage 5D without residual renal function
  serum Mg after treatment: did not

## COc1ccc2nc([S@@+]([O-])Cc3ncc(C)c(OC)c3C)[nH]c2c1 [esomeprazole]
[2]; at 2 weeks
  number of subjects with high serum CTX (upper normal limit): Six
[2]; at 4 weeks
  number of subjects with high serum CTX (upper normal limit): Six
[3]; at 2 weeks
  number of subjects with high serum PTH (>65 pg/ml): 15 subjects
[3]; at 4 weeks
  number of subjects with high serum PTH (>65 pg/ml): 10 subjects
[4]; at 2 weeks
  number of subjects with hypomagnesemia or marginal hypomagnesemia (<2 mg/dL): 3 subjects
  subjects with hypomagnesemia or marginal hypomagnesemia (<2 mg/dL): 14%
[4]; at 4 weeks
  number of subjects with hypomagnesemia or marginal hypomagnesemia (<2 mg/dL): 5 subjects
  subjects with hypomagnesemia or marginal hypomagnesemia (<2 mg/dL): 23%
[5]
  24-h urinary ammonium compared with baseline: marginally higher
  24-h urinary citrate compared with baseline: significantly lower
[6]
  serum FGF23, change from Baseline: trend toward a decline
[6]; listed as PPI
  serum FGF23, change from Baseline: tended to rise
[7]
  FEMg, change during treatment: trended downward
[8]; after 4 weeks
  number of subjects with hypocalcemia or marginal hypocalcemia (serum calcium <9 mg/dL): 4 subjects
[8]; at 2 weeks
  number of subjects with hypocalcemia or marginal hypocalcemia (serum calcium <9 mg/dL): 5 subjects
  subjects with low or marginally low serum calcium (<9 mg/dL): 23%
[8]; at 4 weeks
  subjects with low or marginally low serum calcium (<9 mg/dL): 18%

## COc1ccc2[nH]c([S+]([O-])Cc3ncc(C)c(OC)c3C)nc2c1 (centres unmarked) [omeprazole]
[9]
  odds ratio of hypomagnesemia: 2.76
